Source: patent US12478628B2, “Germ cell nuclear factor ligands and methods of use thereof” (Saint Louis University, priority 2020, dated 2025)

The compounds below were run against T1, GCNF LBD (Homo sapiens, UniProt Q15406) (assay: Differential scanning fluorimetry (DSF) of GCNF LBD). Details: additional ligand screening.
T1 construct: Human GCNF (NR6A1) LBD (residues 248-480); made in house; host or cells: E. coli BL(21) DE3
T1 sequence (Q15406 248-480): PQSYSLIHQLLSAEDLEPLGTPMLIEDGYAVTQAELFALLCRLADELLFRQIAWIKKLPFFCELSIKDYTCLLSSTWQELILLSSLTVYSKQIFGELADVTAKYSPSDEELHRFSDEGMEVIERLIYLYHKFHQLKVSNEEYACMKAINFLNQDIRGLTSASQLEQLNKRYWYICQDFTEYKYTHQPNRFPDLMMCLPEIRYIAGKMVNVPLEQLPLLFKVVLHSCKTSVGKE
Assay type: binding
Description: DSF Assay. GCNF LBD (5 μM) were mixed with 1× Sypro orange (Invitrogen) in DSF buffer (50 mM HEPES, 50 mM KCl, 5 mM TCEP, 0.5 mM EDTA, pH 7.5). Test compounds was added at 1:1 molar equivalence as protein or replaced with DMSO control. Ten microliters (10 μL)×5 replicates for each sample were plated on 384-well PCR microplate. No protein control and no ligand references were also run simultaneously in 5 replicates on the same plate. A total of 450 compounds (Life Chemicals) previously selected from a nuclear-receptor-biased library targeting REV-ERB were analyzed. Thermal stability was assessed on a Quantstudio 6 instrument (Biosystems) by ramping the temperature from 25° C. to 95° C. at 0.05° C./s and protein melt shifts were subsequently quantified by Boltzmann-derived melting temperature (Tm) using the Protein Thermal Shift (ThermoFisher) software. Positive hits were identified when a thermal shift (ΔTm) of at least 2° C. was observed.
For the DSF ligand titration assay, ligands 30, 34 and 80 were titrated against 5 μM GCNF LBD with a ligand concentration series of 30, 20, 13, 9, 6, 4, 2.6, 1.7 and 0 μM from a 20 mM DMSO stock solution. DSF assay and analysis was then performed as described above. All DSF data were reported as mean±SEM.

change in Tm of GCNF	Structure (SMILES)
1.6 °C	CCOC(=O)C(C)Oc1cccc2c(=O)n(CC(=O)Nc3c(C)cc(C)cc3C)ccc12 (stereo not drawn) [R5]
0.8 °C	COC(=O)COc1cccc2c(=O)n(CC(=O)NCCc3ccc(OC)c(OC)c3)ccc12 [R9]
0.8 °C	CCCCCn1c(SCC(=O)CC(=O)OCC)nc2cc(C(=O)NCc3ccco3)ccc2c1=O [R12]
0.9 °C	O=C1CCCC2=C1C(c1ccc(O)cc1)C1=C(CCCC1=O)O2 [U1]
2.3 °C	COc1ccc(NC(=O)N2CCC3(CC2)N=C(SCc2ccccc2)C(c2ccccc2)=N3)cc1OC [U2]
1.0 °C	CC(=O)Nc1ccc(NCC(O)Cn2c3ccccc3n3c(=O)cc(C)c(C#N)c23)cc1 (stereo not drawn) [U7]
